Entries after “also recorded” stand apart in the source; their conditions may differ. Where two headings read alike, the source gives them in different places.
What was measured:
NlugCSP8 = NlugCSP8 (Nilaparvata lugens, UniProt B7TVH4); test: Fluorescence competitive ligand binding assay with 1-NPN probe
Protocol: The recombinant pET-30a/CSP8 expression plasmid was transformed into Escherichia coli BL21 (DE3) competent cells. After DNA sequencing, a single positive clone was grown in 10 mL Luria-Bertani (LB) medium containing kanamycin (50 μg/mL) with shaking overnight at 220 rpm and 37°C. The culture was diluted to 2 L LB medium (supplemented with 50 μg/mL kanamycin) and grown at 37°C with shaking at 220 rpm until the culture reached the optical density value of ~0.6–0.7 at 600 nm. The recombinant protein expression was induced by the addition of 2 mM IPTG (Isopropyl β-D-1-thiogalactopyranoside), followed by culturing for 4 h at 37°C. The bacterial cells were harvested by centrifugation (10,000 rpm, 10 min) and sonicated. The expressed protein presented in the supernatant as a soluble form. Then, NlugCSP8 purification was performed using a Ni-ion affinity chromatography column (GE Healthcare, Uppsala, Sweden). His-tag was removed from the recombinant protein with the addition of recombinant bovine enterokinase (EK) in the eluted fractions of protein, followed by 16 h incubation at 25°C. After running the digested protein back through the Ni-ion affinity chromatography column, the tag-free protein was obtained in the flow through fraction. Protein expression and purification steps were assessed by 15% SDS-PAGE (sodium dodecyl sulfate-polyacrylamide gel electrophoresis). Finally, purified protein was dialyzed in Tris buffer (pH 5.0) and (pH 7.4). The concentration of purified protein was determined prior to perform ligand-binding specificities of NlugCSP8 with 25 selected ligands at pH 5.0 and pH 7.4.
Fluorescence-based ligand binding assays were performed based on the method described by Sun X. et al. ([2016]). According to previous studies about the rice-specific volatiles (Fujii et al., [2010]; He et al., [2011]; Yang et al., [2014]; Zhang et al., [2014]), 25 potential ligands were selected for the fluorescence binding assays (Table 1). All the ligands used in this study were purchased from Sigma-Aldrich (St. Louis, MO, USA) and stored according to manufacturer instructions. The ligand binding affinity for various ligands was determined by using the 1-NPN (N-phenyl-1-naphthylamine) as a fluorescent probe. RF-5301PC fluorimeter (Shimadzu, Kyoto, Japan) was used for fluorescence binding assay at 25°C with 10 nm slit width and 1 cm light path quartz cuvette for emission and excitation. The 1-NPN/NlugCSP8 mixture was excited using an excitation wavelength of 337 nm, and the fluorescence intensity was recorded between 350 and 600 nm following an established protocol (Ban et al., [2002]). The 1-NPN and all the potential ligands were prepared in spectrophotometric-grade methanol. The binding constant for 1-NPN was measured by adding aliquots of 1 mM 1-NPN into a 2 μM solution of protein in 30 mM Tris-HCL at room temperature. […] For each test, fluorescence measurement was conducted after the reaction was incubated for 2 min at room temperature (Liu et al., [2015]). Three independent measurements were used to obtain the binding data. 1-NPN/NlugCSP8 dissociation constants (Kd) were calculated from Scatchard plots of the binding data using the Prism 5 software (GraphPad, La Jolla, CA, USA). The curves were linearized using the Scatchard plot program (Campanacci et al., [2001]). The dissociation constants of the competitors were determined by using the corresponding IC50-values according to the equation Ki = [IC50]/ (1+[1-NPN]/K1−NPN), where IC50 represents the concentration of ligand which decreases the fluorescence intensity of [1-NPN], [1-NPN] is the free concentration of 1-NPN and K1−NPN is the dissociation constant of the NlugCSP8/1-NPN complex (Ban et al., [2003]; Tian and Zhang, [2016]). For the reader's convenience, data were recalculated as 1/ki × 1,000, for which a larger value designates a stronger ligand binding affinity.

Nilaparvata lugens [1] = test: H-tube olfactometer behavioral assay; assay type: in vivo; details: macropterous adults, vs liquid paraffin
Protocol: BPH behavior responses to different ligands were tested in an H-tube olfactometer similar to which previously used by Yi et al. ([2018]) in our laboratory. The H-tube olfactometer mainly consists of two glass tubes (arms) with gauze at its top end. These two glass tubes were connected by another tube (5 cm in diameter, 20 cm long with a hole of 1 cm in the middle for releasing BPH). Twenty macropterous (10 from each sex) BPH adults were introduced into the H-tube and the number of BPH was counted at 30 min after their introduction. Liquid paraffin was used as in control arm. Rubber septa were absorbed in the liquid paraffin and solutions of the odor molecules to be tested (liquid paraffin+ different concentration of tested volatile) and placed at room temperature. After 24 h, one rubber septa from each control and tested volatile was put in each glass arm. After one replication, rubber septa were changed and three treatments (1, 10, and 100 μl/mL) of tested volatiles against macropterous adults were tested in eight replications. After four replications, the H-tube olfactometer was washed with 75% alcohol and the liquid paraffin rubber septa were placed in another arm to complete the other four replications. The impact of NlugCSP8-dsRNA on the preference of N. lugens was also tested by H-tube olfactometer assays. Corresponding control experiments without dsRNA injection were performed to investigate whether the preference of N. lugens was affected by volatile concentration change. Three treatments of BPH (NlugCSP8-dsRNA injected, GFP-dsRNA injected, and without injection) were tested in four replications. As in case of dsRNA injected insects, the concentration of volatiles that have highly significant attractive results on non-injected insects used for dsCSP8 and dsGFP injected insects. In order to evaluate the best RNAi effect, mRNA levels of NlugCSP8-dsRNA injected insects were determined and compared with the GFP-dsRNA-injected and non-injected insects, prior to H-tube olfactometer bioassay. Based on the findings of previous step, we re-inject the BPH and the individuals with the best post-injection RNAi effect after 7-days, were used in the H-tube olfactometer bioassay. Bioassays were performed under controlled conditions at 26 ± 2°C and 75 ± 5% relative humidity.

Nilaparvata lugens [2] = test: H-tube olfactometer assay after RNAi (dsRNA-injected BPH); assay type: in vivo; details: 10 μl/mL (nerolidol), 100 μl/mL (hexanal); compared with controls
Protocol: BPH behavior responses to different ligands were tested in an H-tube olfactometer similar to which previously used by Yi et al. ([2018]) in our laboratory. The H-tube olfactometer mainly consists of two glass tubes (arms) with gauze at its top end. These two glass tubes were connected by another tube (5 cm in diameter, 20 cm long with a hole of 1 cm in the middle for releasing BPH). Twenty macropterous (10 from each sex) BPH adults were introduced into the H-tube and the number of BPH was counted at 30 min after their introduction. Liquid paraffin was used as in control arm. Rubber septa were absorbed in the liquid paraffin and solutions of the odor molecules to be tested (liquid paraffin+ different concentration of tested volatile) and placed at room temperature. After 24 h, one rubber septa from each control and tested volatile was put in each glass arm. After one replication, rubber septa were changed and three treatments (1, 10, and 100 μl/mL) of tested volatiles against macropterous adults were tested in eight replications. […] In order to evaluate the best RNAi effect, mRNA levels of NlugCSP8-dsRNA injected insects were determined and compared with the GFP-dsRNA-injected and non-injected insects, prior to H-tube olfactometer bioassay. […]

NlugCSP7 = system: NlugCSP7; parameters: method as in Yang et al., 2014; details: ref Yang et al., 2014; cited from earlier work
BPH = system: BPH; parameters: method as in Hernandez et al., 1989; Youn, 2002; details: BPH and some other Hemiptera; ref Hernandez et al., 1989; Youn, 2002; cited from earlier work
[3] = pH 5.0, calculated from IC50, read-out: Ki
[4] = pH 7.4, calculated from IC50, read-out: Ki
[5] = Ki, pH 5.0, calculated from IC50
[6] = Ki, pH 7.4, calculated from IC50

NlugCSP8, sequence (B7TVH4 entry or part of it): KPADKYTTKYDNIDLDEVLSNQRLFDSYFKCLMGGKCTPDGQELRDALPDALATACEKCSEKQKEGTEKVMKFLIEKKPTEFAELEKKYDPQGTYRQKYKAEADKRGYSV

| Compound | Ki (NlugCSP8; [3]) | IC50 (NlugCSP8; pH 5.0, read-out: IC50) | Ki (NlugCSP8; [4]) | IC50 (NlugCSP8; pH 7.4, read-out: IC50) | IC50 (NlugCSP8; IC50, pH 5.0) | IC50 (NlugCSP8; IC50, pH 7.4) | Ki (NlugCSP8; [5]) | Ki (NlugCSP8; [6]) | further results |
| --- | --- | --- | --- | --- | --- | --- | --- | --- | --- |
| CCCCCCCCCCCCCCCC [Hexadecane] | 23.8 µM | 27.3 µM | 15.9 µM | 19 µM |  |  |  |  |  |
| CCCCCC=O [Hexanal] |  |  |  |  | 11 µM | 17.3 µM | 9.56 µM | 14.4 µM | behavioral response of BPH (Nilaparvata lugens [1]; 1 μl/mL): repellency; behavioral response of BPH (Nilaparvata lugens [1]; 10 μl/mL): attraction became weakened; behavioral response of BPH (Nilaparvata lugens [1]; 100 μl/mL): strongly behaved as attractant; behavior response of dsCSP8-injected (RNAi) BPH to attractant (Nilaparvata lugens [2]): reduced significantly; also recorded: significantly inhibited; binding affinity with NlugCSP7 (NlugCSP7): weak affinities; Electroantennogram response (BPH): high Electroantennogram response |
| C=CC(C)(O)CCC=C(C)C (stereo not shown) [Linalool] |  |  |  |  | 36.9 µM | 23.4 µM | 32.2 µM | 19.5 µM |  |
| COC(=O)c1ccccc1 [Methyl benzoate] |  |  |  |  | 17.8 µM | 23.6 µM | 15.5 µM | 19.6 µM |  |
| CCCCCCCCCCCCCCCCCCC [Nonadecane] | 24.6 µM | 28.3 µM | 14.3 µM | 17.2 µM |  |  |  |  |  |
| C=C(C)[C@H]1CC=C(C)CC1 [R-(+)-limonene] | 12.6 µM | 14.4 µM | 13.2 µM | 15.9 µM |  |  |  |  |  |
| CC1=CCC(=C(C)C)CC1 [Terpinolene] |  |  |  |  | 31.2 µM | 25.6 µM | 27.2 µM | 21.3 µM |  |
| CCC/C=C/CO [Trans-2-hexen-1-ol] |  |  |  |  | 18.2 µM | 25.9 µM | 15.9 µM | 21.5 µM |  |
| CCC/C=C/C=O [Trans-2-hexenal] |  |  |  |  | 11.6 µM | 28 µM | < 10 µM | 23.3 µM | behavioral response of BPH (Nilaparvata lugens [1]; concentration not given): significant aversion |
| CC1=CC=C(C(C)C)CC1 [α-Terpinene] |  |  |  |  | 16.4 µM | 16.6 µM | 14.3 µM | 13.8 µM |  |
| CC1=CC[C@@H](C(C)(C)O)CC1 [α-Terpineol] |  |  |  |  | 15.5 µM | 24.1 µM | 13.5 µM | 20.1 µM |  |
| (–)-Limoonene | 17.8 µM | 20.4 µM | 20.4 µM | 24.4 µM |  |  |  |  |  |
| Farnesene | 173 µM | 199 µM | 44.8 µM | 53.8 µM |  |  |  |  | Ki (NlugCSP8; pH 5.0, calculated from IC50, listed as farnesene, read-out: Ki): > 40 µM; Ki (NlugCSP8; pH 7.4, calculated from IC50, listed as farnesene, read-out: Ki): > 40 µM |
